Reference: patent US20240415914A1, “Water Dispersible Cannabinoid Compositions” (priority 2021, published 2024)
Like-named read-outs stand apart in the source and are kept apart here.

Key:
[1] = assay type: physicochemical; settings: stored at room temperature (21-25° C.)
Experimental: At each time period, 0.05 g of powder was dissolved in 10 ml-15 of ethanol, diluted to fall within the analytical range, and injected into the LCMSMS for analysis.

[2] = Stability of cannabinoid and Vitamin E components of Beverage 2 (AB Red) stored at 8° C. and 21-25° C., LCMSMS over 570 days
Experimental: The LCMSMS was calibrated for 0-50 ng/ml cannabinoids with the same resin material used in the preparation of the concentrates. At each time period, 100 μml of beverage was diluted with 10 ml of methanol and injected into the LCMSMS for analysis.

Cc1c(C)c2c(c(C)c1O)CC[C@@](C)(CCC[C@H](C)CCC[C@H](C)CCCC(C)C)O2 [α-Tocopherol]
Stability in Powder Concentrate (content by LCMSMS) ([1]; day 0): 4.85 mg/g powder
Stability in Powder Concentrate (content by LCMSMS) ([1]; day 1): 4.89 mg/g powder
Stability in Powder Concentrate (content by LCMSMS) ([1]; day 2): 4.79 mg/g powder
Stability in Powder Concentrate (content by LCMSMS) ([1]; day 3): 4.69 mg/g powder
Stability in Powder Concentrate (content by LCMSMS) ([1]; day 5): 4.99 mg/g powder
Stability in Powder Concentrate (content by LCMSMS) ([1]; day 8): 4.69 mg/g powder
Stability in Powder Concentrate (content by LCMSMS) ([1]; day 9): 4.75 mg/g powder
Stability in Powder Concentrate (content by LCMSMS) ([1]; day 10): 4.77 mg/g powder
Stability in Powder Concentrate (content by LCMSMS) ([1]; day 11): 5.04 mg/g powder
Stability in Powder Concentrate (content by LCMSMS) ([1]; day 12): 5.01 mg/g powder
Stability in Powder Concentrate (content by LCMSMS) ([1]; day 15): 5.07 mg/g powder
Stability in Powder Concentrate (content by LCMSMS) ([1]; day 16): 4.96 mg/g powder
Stability in Powder Concentrate (content by LCMSMS) ([1]; day 17): 4.94 mg/g powder
Stability in Powder Concentrate (content by LCMSMS) ([1]; day 18): 4.77 mg/g powder
Stability in Powder Concentrate (content by LCMSMS) ([1]; day 19): 5.04 mg/g powder
Stability in Powder Concentrate (content by LCMSMS) ([1]; day 22): 4.94 mg/g powder
Stability in Powder Concentrate (content by LCMSMS) ([1]; day 23): 4.91 mg/g powder
Stability in Powder Concentrate (content by LCMSMS) ([1]; day 24): 5.00 mg/g powder
Stability in Powder Concentrate (content by LCMSMS) ([1]; day 25): 5.06 mg/g powder
Stability in Powder Concentrate (content by LCMSMS) ([1]; day 26): 4.84 mg/g powder
Stability in Powder Concentrate (content by LCMSMS) ([1]; day 29): 4.85 mg/g powder
Stability in Powder Concentrate (content by LCMSMS) ([1]; day 30): 4.83 mg/g powder
Stability in Powder Concentrate (content by LCMSMS) ([1]; day 60): 4.91 mg/g powder
Stability in Powder Concentrate (content by LCMSMS) ([1]; day 90): 4.96 mg/g powder
Stability in Powder Concentrate (content by LCMSMS) ([1]; day 120): 4.93 mg/g powder
Stability in Powder Concentrate (content by LCMSMS) ([1]; day 150): 4.69 mg/g powder
Stability in Powder Concentrate (content by LCMSMS) ([1]; day 180): 4.70 mg/g powder
Stability in Powder Concentrate (content by LCMSMS) ([1]; day 210): 4.84 mg/g powder
Stability in Powder Concentrate (content by LCMSMS) ([1]; day 240): 5.03 mg/g powder
Stability in Powder Concentrate (content by LCMSMS) ([1]; day 270): 4.78 mg/g powder
Stability in Powder Concentrate (content by LCMSMS) ([1]; day 300): 4.81 mg/g powder
Stability in Powder Concentrate (content by LCMSMS) ([1]; day 330): 4.81 mg/g powder
Stability in Powder Concentrate (content by LCMSMS) ([1]; day 360): 4.83 mg/g powder
Stability in Powder Concentrate (content by LCMSMS) ([1]; day 390): 4.91 mg/g powder
Stability in Powder Concentrate (content by LCMSMS) ([1]; day 420): 4.69 mg/g powder
Stability in Powder Concentrate (content by LCMSMS) ([1]; day 450): 5.00 mg/g powder
Stability in Powder Concentrate (content by LCMSMS) ([1]; day 480): 4.98 mg/g powder
Stability in Powder Concentrate (content by LCMSMS) ([1]; day 510): 5.02 mg/g powder
Stability in Powder Concentrate (content by LCMSMS) ([1]; day 540): 5.03 mg/g powder
Stability in Powder Concentrate (content by LCMSMS) ([1]; day 570): 4.72 mg/g powder
Stability of Vitamin Es in AB Red ([2]; 8° C., 0 days): 25.3 µg/mL
Stability of Vitamin Es in AB Red ([2]; 8° C., 1 days): 25.2 µg/mL
Stability of Vitamin Es in AB Red ([2]; 8° C., 2 days): 24.9 µg/mL
Stability of Vitamin Es in AB Red ([2]; 8° C., 3 days): 25.3 µg/mL
Stability of Vitamin Es in AB Red ([2]; 8° C., 5 days): 24.2 µg/mL
Stability of Vitamin Es in AB Red ([2]; 8° C., 8 days): 23.7 µg/mL
Stability of Vitamin Es in AB Red ([2]; 8° C., 9 days): 24.6 µg/mL
Stability of Vitamin Es in AB Red ([2]; 8° C., 10 days): 24.9 µg/mL
Stability of Vitamin Es in AB Red ([2]; 8° C., 11 days): 23.9 µg/mL
Stability of Vitamin Es in AB Red ([2]; 8° C., 12 days): 24.4 µg/mL
Stability of Vitamin Es in AB Red ([2]; 8° C., 15 days): 25.6 µg/mL
Stability of Vitamin Es in AB Red ([2]; 8° C., 16 days): 24.5 µg/mL
Stability of Vitamin Es in AB Red ([2]; 8° C., 17 days): 23.6 µg/mL
Stability of Vitamin Es in AB Red ([2]; 8° C., 18 days): 24.1 µg/mL
Stability of Vitamin Es in AB Red ([2]; 8° C., 19 days): 24.0 µg/mL
Stability of Vitamin Es in AB Red ([2]; 8° C., 22 days): 25.0 µg/mL
Stability of Vitamin Es in AB Red ([2]; 8° C., 23 days): 23.2 µg/mL
Stability of Vitamin Es in AB Red ([2]; 8° C., 24 days): 24.3 µg/mL
Stability of Vitamin Es in AB Red ([2]; 8° C., 25 days): 23.6 µg/mL
Stability of Vitamin Es in AB Red ([2]; 8° C., 26 days): 25.2 µg/mL
Stability of Vitamin Es in AB Red ([2]; 8° C., 29 days): 23.5 µg/mL
Stability of Vitamin Es in AB Red ([2]; 8° C., 30 days): 24.2 µg/mL
Stability of Vitamin Es in AB Red ([2]; 8° C., 60 days): 24.2 µg/mL
Stability of Vitamin Es in AB Red ([2]; 8° C., 90 days): 23.1 µg/mL
Stability of Vitamin Es in AB Red ([2]; 8° C., 120 days): 25.2 µg/mL
Stability of Vitamin Es in AB Red ([2]; 8° C., 150 days): 25.4 µg/mL
Stability of Vitamin Es in AB Red ([2]; 8° C., 180 days): 23.6 µg/mL
Stability of Vitamin Es in AB Red ([2]; 8° C., 210 days): 23.5 µg/mL
Stability of Vitamin Es in AB Red ([2]; 8° C., 240 days): 23.6 µg/mL
Stability of Vitamin Es in AB Red ([2]; 8° C., 270 days): 23.6 µg/mL
Stability of Vitamin Es in AB Red ([2]; 8° C., 300 days): 23.1 µg/mL
Stability of Vitamin Es in AB Red ([2]; 8° C., 330 days): 22.9 µg/mL
Stability of Vitamin Es in AB Red ([2]; 8° C., 390 days): 23.1 µg/mL
Stability of Vitamin Es in AB Red ([2]; 8° C., 420 days): 22.3 µg/mL
Stability of Vitamin Es in AB Red ([2]; 8° C., 450 days): 22.7 µg/mL
Stability of Vitamin Es in AB Red ([2]; 8° C., 480 days): 21.8 µg/mL
Stability of Vitamin Es in AB Red ([2]; 8° C., 510 days): 22.0 µg/mL
Stability of Vitamin Es in AB Red ([2]; 8° C., 540 days): 21.8 µg/mL
Stability of Vitamin Es in AB Red ([2]; 8° C., 570 days): 21.5 µg/mL
Stability of Vitamin Es in AB Red ([2]; 21-25° C., 0 days): 25.3 µg/mL
Stability of Vitamin Es in AB Red ([2]; 21-25° C., 1 days): 24.4 µg/mL
Stability of Vitamin Es in AB Red ([2]; 21-25° C., 2 days): 24.1 µg/mL
Stability of Vitamin Es in AB Red ([2]; 21-25° C., 3 days): 23.8 µg/mL
Stability of Vitamin Es in AB Red ([2]; 21-25° C., 5 days): 22.9 µg/mL
Stability of Vitamin Es in AB Red ([2]; 21-25° C., 8 days): 24.5 µg/mL
Stability of Vitamin Es in AB Red ([2]; 21-25° C., 9 days): 23.3 µg/mL
Stability of Vitamin Es in AB Red ([2]; 21-25° C., 10 days): 23.0 µg/mL
Stability of Vitamin Es in AB Red ([2]; 21-25° C., 11 days): 24.4 µg/mL
Stability of Vitamin Es in AB Red ([2]; 21-25° C., 12 days): 23.4 µg/mL
Stability of Vitamin Es in AB Red ([2]; 21-25° C., 15 days): 24.8 µg/mL
Stability of Vitamin Es in AB Red ([2]; 21-25° C., 16 days): 25.1 µg/mL
Stability of Vitamin Es in AB Red ([2]; 21-25° C., 17 days): 24.4 µg/mL
Stability of Vitamin Es in AB Red ([2]; 21-25° C., 18 days): 24.9 µg/mL
Stability of Vitamin Es in AB Red ([2]; 21-25° C., 19 days): 25.4 µg/mL
Stability of Vitamin Es in AB Red ([2]; 21-25° C., 22 days): 25.4 µg/mL
Stability of Vitamin Es in AB Red ([2]; 21-25° C., 23 days): 24.6 µg/mL
Stability of Vitamin Es in AB Red ([2]; 21-25° C., 24 days): 23.5 µg/mL
Stability of Vitamin Es in AB Red ([2]; 21-25° C., 25 days): 25.5 µg/mL
Stability of Vitamin Es in AB Red ([2]; 21-25° C., 26 days): 24.3 µg/mL
Stability of Vitamin Es in AB Red ([2]; 21-25° C., 29 days): 24.4 µg/mL
Stability of Vitamin Es in AB Red ([2]; 21-25° C., 30 days): 24.6 µg/mL
Stability of Vitamin Es in AB Red ([2]; 21-25° C., 60 days): 24.4 µg/mL
Stability of Vitamin Es in AB Red ([2]; 21-25° C., 90 days): 24.3 µg/mL
Stability of Vitamin Es in AB Red ([2]; 21-25° C., 120 days): 23.7 µg/mL
Stability of Vitamin Es in AB Red ([2]; 21-25° C., 150 days): 23.4 µg/mL
Stability of Vitamin Es in AB Red ([2]; 21-25° C., 180 days): 23.3 µg/mL
Stability of Vitamin Es in AB Red ([2]; 21-25° C., 210 days): 22.7 µg/mL
Stability of Vitamin Es in AB Red ([2]; 21-25° C., 240 days): 23.1 µg/mL
Stability of Vitamin Es in AB Red ([2]; 21-25° C., 270 days): 23.1 µg/mL
Stability of Vitamin Es in AB Red ([2]; 21-25° C., 300 days): 23.5 µg/mL
Stability of Vitamin Es in AB Red ([2]; 21-25° C., 330 days): 22.6 µg/mL
Stability of Vitamin Es in AB Red ([2]; 21-25° C., 390 days): 22.7 µg/mL
Stability of Vitamin Es in AB Red ([2]; 21-25° C., 420 days): 22.5 µg/mL
Stability of Vitamin Es in AB Red ([2]; 21-25° C., 450 days): 22.3 µg/mL
Stability of Vitamin Es in AB Red ([2]; 21-25° C., 480 days): 21.6 µg/mL
Stability of Vitamin Es in AB Red ([2]; 21-25° C., 510 days): 21.4 µg/mL
Stability of Vitamin Es in AB Red ([2]; 21-25° C., 540 days): 21.0 µg/mL
Stability of Vitamin Es in AB Red ([2]; 21-25° C., 570 days): 21.4 µg/mL
